Paper PMC10835127, “Viruses traverse the human proteome through peptide interfaces that can be biomimetically leveraged for drug discovery” (Proceedings of the National Academy of Sciences of the …, 2024)
Where two headings read alike, the source gives them in different places.

How the values were obtained:
in vivo [1] = conditions: male, CD1, mouse, 20 mg/kg, 20 mg/kg per os
[2] = Plasma protein binding by equilibrium dialysis, murine; assay type: in vitro ADME; conditions: mouse, read-out: PPB (% bound)
Procedure: The free and bound fractions of the tested compounds in mouse and human plasma were determined by equilibrium dialysis using a 96-well Teflon dialysis unit (HTDialysis plate complete unit, HT Dialysis, USA). The HTDialysis plate complete unit consists of a 96-well plate with wells vertically bisected by a semipermeable membrane (membranes strips 12 to 14 kDa) creating two chambers. A 125 μL aliquot of plasma containing tested compound at 10 μM was placed on one side and 125 μL of Dulbecco‘s phosphate buffered saline (D-PBS) on the other. The plate was incubated at 37 °C for 6 hr under gentle agitation. Then, samples from both plasma and buffer compartment were analyzed by a LC-MS/MS method to measure the free fraction and the bound fraction to the plasma proteins. […]

[3] = Microsomal stability, mouse liver microsomes; assay type: in vitro ADME; conditions: male, CD-1, mouse, pH 7.4; murine liver microsomes; read-out: CLint mLM
Procedure: Tested compounds (1 μM) were incubated with pooled human liver microsomes (Xenotech; pooled male and female) and pooled mouse liver microsomes (Xenotech; male CD-1 mice).
Microsomes (final protein concentrations of 0.25 and 0.5 mg/ml, 0.1 M phosphate buffer pH 7.4) containing tested compound (final substrate concentration 1 μM; final DMSO concentration 0.25 %) were preincubated at 37 °C prior to the addition of NADPH (final concentration 1 mM) to initiate the reaction. The final incubation volume was 200 μl. 3 species-specific control compounds were included with each species. At 5 time points (0, 5, 10, 20, and 40 min), reactions were stopped by transferring 50 μl of the incubation mixture into 0.5 μM carbamazepine in acetonitrile. Tested compound concentrations were analyzed by LC-MS/MS and the resulting data were used to determine the half-life and intrinsic clearance of the compound in each

PK parameters in mice = assay type: in vivo, male Swiss (CD-1) mice; conditions: mouse
Procedure: PK parameters and tissue distribution in mice
The pharmacokinetic profiles of the tested compounds were evaluated in male Swiss (CD-1) mice around 5-6 weeks old (3 animals per sampling time). […]
0.2 % Tween 80 in water. Blood samples were collected (0.25 mL) from the sinus retro-orbital […]
24 hr for p.o. route. The blood samples were immediately centrifuged at 2500 rpm at +4 °C, and the plasma was stored at −80 °C. 50 μL of plasma sample was taken and 150 μL of acetonitrile was added. After protein precipitation, analysis of the molecule was performed using LC-MS/MS to determine plasma compound concentration. For liver and lung collection, 3 animals per group were involved and sampled after 2 hr and 24 hr upon 20 mg/kg p.o. administration. Animals were perfused with around 10 mL of saline solution directly into the heart to extract the maximal blood sample from the liver and the lung. Animals were then sacrificed by cervical dislocation and liver

in vivo [4] = conditions: male, Sprague Dawley, rat, 50 mg/kg, 50 mg/kg per os
Procedure: For this molecule, both antiviral potency (IC50 of 3 nM) and PK properties were improved, with low clearance and high exposure in mouse plasma. […] The tissue distribution was also assessed at two different time points (2 and 24 h) after per os administration in mice (20 mg/kg) and rats (50 mg/kg) (Fig. 5C). […] Such low lung/plasma ratio precluded the use of dEF3122 in respiratory diseases such as influenza without further optimization.

NAF-1 = target: T1, NAF-1 (Homo sapiens, UniProt Q8N5K1); experiment: In vitro NEET [2Fe-2S] cluster release, NAF-1; assay type: biochemical; conditions: recombinant NAF-1, 37 °C, absorbance 460 nm
T1 construct: MitoNEET ([60]) and NAF-1 ([61]) cytosolic domains and MiNT ([62]) were purified from E. coli as previously published; made in house; host or cells: E. coli
T1 sequence (Q8N5K1 61-135 limits assumed): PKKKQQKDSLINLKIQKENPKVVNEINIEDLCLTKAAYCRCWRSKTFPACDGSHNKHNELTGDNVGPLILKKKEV
Procedure: (§1) MitoNEET ([60]) and NAF-1 ([61]) cytosolic domains and MiNT ([62]) were purified from E. coli as previously published. Experiments were performed in 96-well plates at 37 °C with […] of Fe-S cluster in a buffer composed of 50 mM Tris-HCl pH 7 and 100 mM NaCl. dEF3122 was dissolved in dimethyl sulfoxide (DMSO) at 10 mM. CPEP31 was dissolved in PBS at 10 mM. After 20 min of incubation of the protein with the molecule, NEET cluster release was followed by measuring the absorbance at 460 and 800 nm over time using a plate reader (SpectraMax ID3). The absorbance at 460 nm was corrected for the variation of the baseline (absorbance at 800 nm) over time and normalized at 1 at the beginning of the kinetics.

MiNT = target: T2, MiNT (Homo sapiens, UniProt P0C7P0); experiment: In vitro NEET [2Fe-2S] cluster release, MiNT; assay type: biochemical; conditions: recombinant MiNT, 37 °C, absorbance 460 nm
T2 construct: made in house; host or cells: E. coli
T2 sequence (P0C7P0 15-127): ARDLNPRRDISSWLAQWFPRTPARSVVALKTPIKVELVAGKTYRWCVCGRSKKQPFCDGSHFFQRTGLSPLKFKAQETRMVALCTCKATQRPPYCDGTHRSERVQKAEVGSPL
Procedure: as §1

[5] = Cryopreserved hepatocyte stability, human; assay type: in vitro ADME; conditions: cryopreserved hepatocytes, read-out: CLint hHep
Procedure: Cryopreserved hepatocyte stability
Tested compounds (1 μM) were incubated with human cryopreserved hepatocytes (pool of 5) (IVT Celsis) and mouse cryopreserved hepatocytes (IVT Celsis). Hepatocytes (1, 0.5 or 0.25 x10^6 cells/mL, Williams’ Medium E (WME) with 4 mM L-glutamine and 2 mM magnesium sulphate) containing tested compound (final substrate concentration 1 μM; final DMSO concentration 0.25 %) were preincubated at 37 °C. The final incubation volume was 500 μl. 3 species-specific control compounds were included with each species. At 7 time points (0, 10, 20, 40, 60, 90, and 120 min), reactions were stopped by transferring 50 μl of the incubation mixture into 0.5 μM carbamazepine in cold acetonitrile. Tested compound concentrations were analyzed by LC-MS/MS and the resulting data were used to determine the half-life and intrinsic clearance of the compound in each species. […]

MitoNEET = target: T3, MitoNEET (Homo sapiens, UniProt Q9NZ45); experiment: In vitro NEET [2Fe-2S] cluster release, MitoNEET; assay type: biochemical; conditions: recombinant MitoNEET, 37 °C, absorbance 460 nm
T3 construct: MitoNEET ([60]) and NAF-1 ([61]) cytosolic domains and MiNT ([62]) were purified from E. coli as previously published; made in house; host or cells: E. coli
T3 sequence (Q9NZ45 32-108 limits assumed): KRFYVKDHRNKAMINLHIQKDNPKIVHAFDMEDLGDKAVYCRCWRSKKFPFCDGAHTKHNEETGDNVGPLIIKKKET
Procedure: as §1

Q: What does the source list for O=C(Nc1scc(C2CCc3ccccc3C2)c1C(=O)O)c1ccccc1 (centres unmarked) [dEF3122]?
A: Kp (in vivo [1]; Liver:Plasma Ratio, 2 h): 0.45; Kp (in vivo [1]; Liver:Plasma Ratio, 24 h): 0.88; Kp (in vivo [1]; Lung:Plasma Ratio, 2 h): 0.12; Kp (in vivo [1]; Lung:Plasma Ratio, 24 h): 0.13; fraction unbound at 6 h, 10 µM [2]: 0.001; microsomal CLint at 1 µM [3]: 24 µL/min/mg; Cmax (PK parameters in mice; male, Swiss (CD-1), plasma, po 2 mg/kg (dose for AUC)): 1600 ng/mL; bioavailability (PK parameters in mice; male, Swiss (CD-1), plasma, po 2 mg/kg, iv 0.25 mg/kg): 36%; plasma concentration reached after oral administration, molar equivalent (PK parameters in mice; po 2 mg/kg): 2600 nM; Kp (in vivo [4]; 2 h, read-out: Liver:Plasma Ratio): 0.91; Kp (in vivo [4]; 2 h, read-out: Lung:Plasma Ratio): 0.11; Kp (in vivo [4]; 24 h, read-out: Liver:Plasma Ratio): 0.78; Kp (in vivo [4]; 24 h, read-out: Lung:Plasma Ratio): 0.18; interaction by [2Fe-2S] cluster release assay (NAF-1): validated the interaction; interaction by [2Fe-2S] cluster release assay (MiNT): validated the interaction; hepatocyte CLint at 1 µM [5]: 19 µL/min/1e6 cells; interaction by [2Fe-2S] cluster release assay (MitoNEET): validated the interaction
